Laboratory results reported in US20100152225A1, “HYDROGENATED PYRIDO [4,3-B] INDOLES SUCH AS DIMEBON FOR TREATING CANINE COGNITIVE DYSFUNCTION SYNDROME” (priority 2006, published 2010).
“Also recorded” adds a separate entry of the source.

Assays:
[1] = system: dogs; settings: dogs with CCDS; reported in FDA Consumer Magazine 2000; cited from earlier work
[2] = system: Beagle Dogs; assay: Day Night Activity (Actiwatch day-night activity rhythms); type: in vivo, Canine
Method: (§1) Dogs were weighed prior to study initiation. Capsules containing dimebon were prepared for each dog according to weight. The following doses of dimebon were used: 2, 6 and 20 mg/kg. Technicians not otherwise involved in the study prepared the capsules. During the control phase of the study, subjects were administered empty gelatine capsules. The test and control articles were administered to the dogs PO within meatballs of moist dog food once daily. Individual subjects were administered the capsule at the same time on each treatment day.
(§2) The design of the study consisted of four 7 day test blocks (a test block refers to the 3 day washout period combined with the 4 day treatment/testing period). The first test block was a control and no subject received treatment during those seven days. Subsequently, the study then followed a Latin-square design, in which all of the subjects were tested at all the three dose levels of the test article in a different order (see Table 3 below). To accomplish this, the twelve subjects were divided into six groups of two subjects balanced for sex and age to the extent possible.
At the start of the study, an Actiwatch collar was placed on each dog and the collar remained on for the study duration of the study. All behavioral testing followed previously established protocols. […]
To assess changes in activity linked to the treatment condition, hourly activity over a five hour period after dosing was calculated. The data were then analyzed with a repeated measures analysis of variance (ANOVA), with time post dosing (1-5 hours), treatment days (1-4 for each condition) and dose (control, 2, 6, and 20 mg/kg) as within subject variables. […] To examine day night-activity levels, day and night activity levels were calculated for each 24-hr period. The data were first analyzed with a repeated measures ANOVA, with dose (control, 2, 6, and 20 mg/kg), treatment day (1-4 for each condition), and phase (day and night) as within-subject variables. […]
Post-dose activity patterns and twenty-four hour activity rhythms were assessed using the Actiwatch method, which detects alterations in activity and changes in phase of the activity cycle as described previously (Siwak et al. (2003) Circadian Activity Rhythms in Dogs Vary with Age and Cognitive Status. Behavioral Neuroscience, 111:813-824). Briefly, general activity patterns were monitored for 28 continuous days using the Mini-Mitter® Actiwatch-16® activity monitoring system (Mini-Mitter Co., Inc., Bend, Oreg.) adapted for dogs. […]
The day/night activity data were analyzed with a repeated-measures ANOVA, with dose, wash-in day, and phase as within-subject variables and test order as a between-subject variable.

[3] = system: Beagle Dogs; assay: Curiosity Test (exploratory behavior, open-field arena); type: in vivo, Canine; settings: for rearing frequency, controls versus dose group: FIG. 10
Method: as §1, §2
After completing the control test block, each group received three doses of the test article in the order prescribed for that group. For each test block, subjects received their respective treatment for the first four days. On the fourth day of each test block, subjects were tested on the curiosity test twice; the first was one hour after article administration and the second was four hours after article administration. The remaining three days were considered washout days for each test block (Table 4).
For the curiosity test, each behavioral measure was analyzed individually using a repeated measures ANOVA with dose (control, 2, 6, and 20 mg/kg), test (first and second) as within-subject variables and order as a between-subject variable.
This is a test of exploratory behavior, which assesses both attention to environment and locomotor activity (Siwak et al. (2001) Effect of Age and Level of Cognitive Function on Spontaneous and Exploratory Behaviors in the Beagle Dog. Learning and Memory, 8:[…].). Subjects were placed in the open-field arena for a 10-minute period. Seven objects were placed in the arena and the subjects were permitted to freely explore the room and the objects.
The open field activity arena consisted of an empty test room (approximately 8′×10′) with strips of electrical tape applied to the floor in a grid pattern of rectangles to facilitate tracking. The floor of the test room was mopped prior to testing and between dogs to reduce olfactory cues from affecting testing. For tests conducted in the open field, the dogs were placed in the test room and their behavior was videotaped over a 10-minute period. On two of the test sessions, subjects were tested for 5 rather than 10 minutes. Accordingly, the data from those two dogs were not included in the initial analysis, which was carried out over all dose levels. However, all dogs were tested on the control and 20 mg/kg dose and a separate analysis was carried out comparing control and high dose treatments.
The movement pattern of the dog within the test room was recorded. In addition, keyboard keys were pressed to indicate the frequency of occurrence of the various behaviors including: sniffing, urinating, grooming, jumping, rearing, inactivity and vocalization. The software also provided a total measure of distance for loco-motor activity.
In addition to general activity, the interactions with the objects (picking-up, contacting, sniffing and urinating on the objects) were assessed and used as measures of exploratory behavior.

[4] = system: Beagle Dogs; assay: Observation of abnormal behavioral responses / behavioral toxicity during study; type: in vivo, Canine; settings: 2, 6 and 20 mg/kg
Excerpt: All dogs received veterinary examinations prior to initiation in the study. Over the course of the study, trained personnel recorded all adverse events and contacted the responsible veterinarian or study director when necessary.
The effect also appeared dependent on baseline activity level, the greater the baseline level the smaller the treatment effect.

[5] = system: Beagle Dogs; assay: General Activity Test (Actiwatch post-dose activity); type: in vivo, Canine; settings: for activity as a function of dose and treatment day: FIG. 2, suggestion of a drug effect
Method: as §1, §2
At the start of the study, an Actiwatch collar was placed on each dog and the collar remained on for the study duration of the study. All behavioral testing followed previously established protocols. For behavioral tests conducted in the open field arena, data analyses were conducted using the DogAct behavioral software (CanCog Technologies Inc., Toronto, ON, Canada). Actiware-Rhythm® software was used to obtain activity counts for the day-night measure.
The Actiwatch data were analyzed to look at both changes in activity pattern temporally linked to treatment and changes in day/night activity.
To assess changes in activity linked to the treatment condition, hourly activity over a five hour period after dosing was calculated. The data were then analyzed with a repeated measures analysis of variance (ANOVA), with time post dosing (1-5 hours), treatment days (1-4 for each condition) and dose (control, 2, 6, and 20 mg/kg) as within subject variables. Test order served as a between subject variable in the initial analysis. To examine day night-activity levels, day and night activity levels were calculated for each 24-hr period. The data were first analyzed with a repeated measures ANOVA, with dose (control, 2, 6, and 20 mg/kg), treatment day (1-4 for each condition), and phase (day and night) as within-subject variables. Once again order served as a between-subject variable.
Post-dose activity patterns and twenty-four hour activity rhythms were assessed using the Actiwatch method, which detects alterations in activity and changes in phase of the activity cycle as described previously (Siwak et al. (2003) Circadian Activity Rhythms in Dogs Vary with Age and Cognitive Status. Behavioral Neuroscience, 111:813-824). Briefly, general activity patterns were monitored for 28 continuous days using the Mini-Mitter® Actiwatch-16® activity monitoring system (Mini-Mitter Co., Inc., Bend, Oreg.) adapted for dogs. The Actiwatch contained an activity sensory that was programmed to provide counts of total activity at 5 minute intervals. Putting the Actiwatch on a dog's collar allowed for recording uninterrupted patterns of activity and rest.
The first analysis of the Actiwatch data was intended to provide an overall picture of the post-dosing effect of the compound on behavioral activity. Accordingly, data for the 5-hour period following dosing was first segregated into 5 one-hour blocks. Thus, each subject's data for each treatment day consisted of 5 consecutive one-hour activity scores. The data were then analyzed with a repeated measures analysis of variance, with time post dosing (1-5 hours), treatment days (1-4 for each condition) and dose (control, 2, 6, and 20 mg/kg) as within subject variables. Test order served as between subject variables in the initial analysis. […]

[6] = 2, 6 and 20 mg/kg, dihydrochloride

SMILES: C#CCN(C)[C@H](C)Cc1ccccc1 [Anipryl®]
- fraction of cases in which it does not work [1]: about ⅓

SMILES: Cc1ccc2c(c1)c1c(n2CCc2ccc(C)nc2)CCN(C)C1.Cl.Cl [dimebon, 2,8-dimethyl-5-(2-(6-methyl-3-pyridyl)-ethyl)-2,3,4,5-tetrahydro-1H-pyrido(4,3-b)indole dihydrochloride]
- ratio of day time activity to night time activity ([2]; 2 mg/kg, FIG. 6, did not achieve statistical significance): highest
- day:night activity ratio ([2]; 20 mg/kg): not altered
- night time activity ([2]; 20 mg/kg): increased night time activity
- day/night activity as a function of dose ([2]; control, 2, 6, 20 mg/kg, did not achieve statistical significance, p=0.158556): overall dose-dependent increase in activity
- change of rearing frequency over the two tests ([3]; 2 mg/kg): decrease in rearing frequency
- object sniff frequency compared to control ([3]; 2 mg/kg, p=0.085660, FIG. 14): lower occurrence of object sniffing
- change of rearing frequency over the two tests ([3]; 6 mg/kg): rearing frequency increased over the two tests
- change of rearing frequency over the two tests ([3]; 20 mg/kg): rearing frequency increased over the two tests
- exploratory behavior ([3]; 20 mg/kg): increase in exploratory behavior
- frequency of object pickup ([3]; 20 mg/kg compared to 2 mg/kg, p=0.10445, FIG. 12): greater frequency of picking up objects
- locomotor activity on the second curiosity test ([3]; 20 mg/kg, 4 h after administration): increased locomotor activity
- object contact duration compared to controls ([3]; 20 mg/kg, especially on the second test, FIG. 13): increased contact
- duration of action ([3]; 20 mg/kg, manifested by locomotor activity on second curiosity test and night time activity): longest duration of action
- change of inactivity over the two tests ([3]; 20 mg/kg, secondary analysis control vs high dose, interaction p=0.098076, FIG. 11): decreased over the two tests
- change of object sniff frequency over the two tests ([3]; 20 mg/kg, secondary analysis, interaction p=0.061260, FIG. 16): object sniff frequency increased over the two tests
- locomotor activity on first and second test ([3]; 20 mg/kg, tests 1 h and 4 h after administration, FIG. 8): activity was increased on both tests
- effect on most behaviors in the exploratory behavior test ([3]; 2, 6 and 20 mg/kg): did not significantly affect most behaviors
- exploration (summary of exploratory behavior test) [3, 6]: generally increased; also recorded: dose-dependent trend towards increased exploration
- rearing frequency, dose effect, secondary analysis ([3]; control vs 20 mg/kg only, p=0.086315): marginally significant effect of dose
- locomotor activity, dose effect (ANOVA) ([3]; control, 2, 6, 20 mg/kg): not significant
- urination frequency, effect of treatment ([3]; control, 2, 6, 20 mg/kg, FIG. 9): no effects of treatment were found
- rearing frequency, dose effect (ANOVA) ([3]; control, 2, 6, 20 mg/kg, p=0.000846): significant dose effect
- object contact duration, dose effect (ANOVA) ([3]; control, 2, 6, 20 mg/kg, p=0.001384): significant dose effect
- object sniff frequency, dose effect (ANOVA) ([3]; control, 2, 6, 20 mg/kg, p=0.056856): marginally significant effect of dose
- object pick-up, dose effect (ANOVA) ([3]; control, 2, 6, 20 mg/kg, p=0.079968): marginally significant effect of dose
- rearing frequency, controls versus dose group ([3]; high dose group, p=0.025826): controls showing significantly less rearing
- rearing frequency, controls versus dose group ([3]; low dose group, p=0.0258): controls showing significantly less rearing
- behavioral toxicity [4]: nor were there other indications of behavioral toxicity
- stereotypical behavior [4]: None of the dogs showed any stereotypical behavior
- abnormal behavioral response ([4]; dihydrochloride): None of these results, however, is indicative of an abnormal behavioral response; also recorded: does not cause any obvious abnormal behavioral responses
- activity at 5 hours post-dosing compared to control ([5]; 6 mg/kg PO once daily, FIG. 1): generally higher
- activity as a function of dose and treatment day ([5]; 6 mg/kg): increased activity
- activity at 5 hours post-dosing compared to control ([5]; 20 mg/kg PO once daily, FIG. 1): generally higher
- activity as a function of dose and treatment day ([5]; 20 mg/kg): increased activity
- behavioral activity (summary) [5, 6]: trend towards an increase in activity with an increase in dosage; also recorded: moderate increase in behavioral activity
- total activity as a function of dose ([5]; control, 2, 6, 20 mg/kg, FIG. 3, not statistically significant, p=0.192360): dose-dependent increase in activity
- decrease of activity with time following treatment ([5]; two highest dose levels, FIG. 1): the decrease is smaller
